Source: patent US12077503B2, “Substituted cyclic amides and their use as herbicides” (FMC CORPORATION, priority 2015, dated 2024)
Where two headings read alike, the source gives them in different places.

Key:
Type in all cases: in vivo
[1] = system: barnyardgrass (Echinochloa crus-galli); assay: Test A postemergence; settings: Echinochloa crus-galli, post-emergence, 240 h, postemergence; for pest or weed control at 125 g/ha: 125 g ai/ha, visual injury vs untreated controls after approx. 10 d, 0 = no effect, 100 = complete control, read-out: Barnyardgrass plant response rating (0 to 100 scale); for pest or weed control at 500 g/ha: 500 g ai/ha, 0 to 100 scale, 0 is no effect, 100 is complete control, read-out: Barnyardgrass plant response rating
Summary of the method: (§1)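 Ratings of 0 (no effect) to 100 (complete control) come from visual comparison with untreated controls roughly 10 d after treatment. Test chemicals, formulated in a non-phytotoxic solvent mixture with surfactant, were applied either as a preemergence directed soil spray on seeded soil or postemergence to one- to two-leaf plants 2 to 10 cm tall.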

corn (Zea mays) = assay: Test A postemergence; settings: Zea mays, post-emergence, 240 h, postemergence; for plant injury at 125 g/ha: 125 g ai/ha, visual injury vs untreated controls after approx. 10 d, 0 = no effect, 100 = complete control, read-out: Corn plant response rating (0 to 100 scale); for plant injury at 500 g/ha: 500 g ai/ha, 0 to 100 scale, 0 is no effect, 100 is complete control, read-out: Corn plant response rating
Summary of the method: as §1

[2] = system: ryegrass, Italian (Italian ryegrass, Lolium multiflorum); assay: Test A postemergence; settings: Lolium multiflorum, post-emergence, 240 h, postemergence; for pest or weed control at 125 g/ha: 125 g ai/ha, visual injury vs untreated controls after approx. 10 d, 0 = no effect, 100 = complete control, read-out: Ryegrass, Italian plant response rating (0 to 100 scale); for pest or weed control at 500 g/ha: 500 g ai/ha, 0 to 100 scale, 0 is no effect, 100 is complete control, read-out: Ryegrass, Italian plant response rating
Summary of the method: as §1

[3] = system: wheat (Triticum aestivum); assay: Test A postemergence; settings: Triticum aestivum, post-emergence, 240 h, postemergence; for plant injury at 125 g/ha: 125 g ai/ha, visual injury vs untreated controls after approx. 10 d, 0 = no effect, 100 = complete control, read-out: Wheat plant response rating (0 to 100 scale); for plant injury at 500 g/ha: 500 g ai/ha, 0 to 100 scale, 0 is no effect, 100 is complete control, read-out: Wheat plant response rating
Summary of the method: as §1

[4] = system: Galium (catchweed bedstraw, Galium aparine); assay: Test A postemergence; settings: Galium, post-emergence, 240 h, postemergence; for pest or weed control at 125 g/ha: 125 g ai/ha, visual injury vs untreated controls after approx. 10 d, 0 = no effect, 100 = complete control, read-out: Galium plant response rating (0 to 100 scale); for pest or weed control at 500 g/ha: 500 g ai/ha, 0 to 100 scale, 0 is no effect, 100 is complete control, read-out: Galium plant response rating
Summary of the method: as §1

[5] = system: blackgrass (Alopecurus myosuroides); assay: Test A postemergence; settings: Alopecurus myosuroides, post-emergence, 240 h, postemergence; for pest or weed control at 125 g/ha: 125 g ai/ha, visual injury vs untreated controls after approx. 10 d, 0 = no effect, 100 = complete control, read-out: Blackgrass plant response rating (0 to 100 scale); for pest or weed control at 500 g/ha: 500 g ai/ha, 0 to 100 scale, 0 is no effect, 100 is complete control, read-out: Blackgrass plant response rating
Summary of the method: as §1

[6] = system: ragweed (common ragweed, Ambrosia elatior); assay: Test A postemergence; settings: Ambrosia artemisiifolia, post-emergence, 240 h, postemergence; for pest or weed control at 125 g/ha: 125 g ai/ha, visual injury vs untreated controls after approx. 10 d, 0 = no effect, 100 = complete control, read-out: Ragweed plant response rating (0 to 100 scale); for pest or weed control at 500 g/ha: 500 g ai/ha, 0 to 100 scale, 0 is no effect, 100 is complete control, read-out: Ragweed plant response rating
Summary of the method: as §1

[7] = system: giant foxtail (Setaria faberii); assay: Test A postemergence; settings: Setaria faberi, post-emergence, 240 h, postemergence; for pest or weed control at 125 g/ha: 125 g ai/ha, visual injury vs untreated controls after approx. 10 d, 0 = no effect, 100 = complete control, read-out: Foxtail, Giant plant response rating (0 to 100 scale); for pest or weed control at 500 g/ha: 500 g ai/ha, 0 to 100 scale, 0 is no effect, 100 is complete control, read-out: Foxtail, Giant plant response rating
Summary of the method: as §1

[8] = system: pigweed (Amaranthus retroflexus); assay: Test A postemergence; settings: Amaranthus retroflexus, post-emergence, 240 h, postemergence; for pest or weed control at 125 g/ha: 125 g ai/ha, visual injury vs untreated controls after approx. 10 d, 0 = no effect, 100 = complete control, read-out: Pigweed plant response rating (0 to 100 scale); for pest or weed control at 500 g/ha: 500 g ai/ha, 0 to 100 scale, 0 is no effect, 100 is complete control, read-out: Pigweed plant response rating
Summary of the method: as §1

Kochia (Kochia scoparia) = assay: Test A preemergence; settings: Bassia scoparia, pre-emergence, 240 h, preemergence, 0 to 100 scale where 0 is no effect and 100 is complete control, read-out: Kochia plant response rating; for pest or weed control at 125 g/ha: 125 g ai/ha; for pest or weed control at 500 g/ha: 500 g ai/ha
Summary of the method: as §1

[9] = system: barnyardgrass (Echinochloa crus-galli); assay: Test A preemergence; settings: Echinochloa crus-galli, pre-emergence, 240 h, preemergence, 0 to 100 scale where 0 is no effect and 100 is complete control, read-out: Barnyardgrass plant response rating; for pest or weed control at 125 g/ha: 125 g ai/ha; for pest or weed control at 500 g/ha: 500 g ai/ha
Summary of the method: as §1

[10] = system: ryegrass, Italian (Italian ryegrass, Lolium multiflorum); assay: Test A preemergence; settings: Lolium multiflorum, pre-emergence, 240 h, preemergence, 0 to 100 scale where 0 is no effect and 100 is complete control, read-out: Ryegrass, Italian plant response rating; for pest or weed control at 125 g/ha: 125 g ai/ha; for pest or weed control at 500 g/ha: 500 g ai/ha
Summary of the method: as §1

[11] = system: ragweed (common ragweed, Ambrosia elatior); assay: Test A preemergence; settings: Ambrosia artemisiifolia, pre-emergence, 240 h, preemergence, 0 to 100 scale where 0 is no effect and 100 is complete control, read-out: Ragweed plant response rating; for pest or weed control at 125 g/ha: 125 g ai/ha; for pest or weed control at 500 g/ha: 500 g ai/ha
Summary of the method: as §1

[12] = system: giant foxtail (Setaria faberii); assay: Test A preemergence; settings: Setaria faberi, pre-emergence, 240 h, preemergence, 0 to 100 scale where 0 is no effect and 100 is complete control, read-out: Foxtail, Giant plant response rating; for pest or weed control at 125 g/ha: 125 g ai/ha; for pest or weed control at 500 g/ha: 500 g ai/ha
Summary of the method: as §1

[13] = system: pigweed (Amaranthus retroflexus); assay: Test A preemergence; settings: Amaranthus retroflexus, pre-emergence, 240 h, preemergence, 0 to 100 scale where 0 is no effect and 100 is complete control, read-out: Pigweed plant response rating; for pest or weed control at 125 g/ha: 125 g ai/ha; for pest or weed control at 500 g/ha: 500 g ai/ha
[14] = visual injury rating, approximately 10 d

CSc1ccccc1NC(=O)[C@H]1C(=O)N(C)CC[C@@H]1c1ccc(C)cc1 [Compound 1222]
pest or weed control at 125 g/ha [1]: 0%
pest or weed control at 500 g/ha [1]: 0%
plant injury at 125 g/ha (corn (Zea mays)): 0%
plant injury at 500 g/ha (corn (Zea mays)): 0%
pest or weed control at 125 g/ha [2]: 0%
pest or weed control at 500 g/ha [2]: 0%
plant injury at 125 g/ha [3]: 0%
plant injury at 500 g/ha [3]: 0%
pest or weed control at 125 g/ha [4]: 0%
pest or weed control at 500 g/ha [4]: 0%
pest or weed control at 125 g/ha [5]: 0%
pest or weed control at 500 g/ha [5]: 0%
pest or weed control at 125 g/ha [6]: 0%
pest or weed control at 500 g/ha [6]: 0%
pest or weed control at 125 g/ha [7]: 20%
pest or weed control at 500 g/ha [7]: 70%
pest or weed control at 125 g/ha [8]: 0%
pest or weed control at 500 g/ha [8]: 0%
pest or weed control at 125 g/ha (Kochia (Kochia scoparia); [14]): 0%
pest or weed control at 500 g/ha (Kochia (Kochia scoparia)): 40%
pest or weed control at 125 g/ha [9, 14]: 0%
pest or weed control at 500 g/ha [9]: 20%
pest or weed control at 125 g/ha [10, 14]: 0%
pest or weed control at 500 g/ha [10]: 0%
pest or weed control at 125 g/ha [11, 14]: 0%
pest or weed control at 500 g/ha [11]: 0%
pest or weed control at 125 g/ha [12, 14]: 0%
pest or weed control at 500 g/ha [12]: 60%
pest or weed control at 125 g/ha [13, 14]: 0%
pest or weed control at 500 g/ha [13]: 0%

O=C1NC[C@H](c2nccs2)[C@H]1C(=O)Nc1ccccc1F [Compound 1181]
pest or weed control at 125 g/ha [1]: 0%
pest or weed control at 500 g/ha [1]: 0%
plant injury at 125 g/ha (corn (Zea mays)): 0%
plant injury at 500 g/ha (corn (Zea mays)): 0%
pest or weed control at 125 g/ha [2]: 0%
pest or weed control at 500 g/ha [2]: 0%
plant injury at 125 g/ha [3]: 0%
plant injury at 500 g/ha [3]: 0%
pest or weed control at 125 g/ha [4]: 0%
pest or weed control at 500 g/ha [4]: 0%
pest or weed control at 125 g/ha [5]: 0%
pest or weed control at 500 g/ha [5]: 0%
pest or weed control at 125 g/ha [6]: 0%
pest or weed control at 500 g/ha [6]: 0%
pest or weed control at 125 g/ha [7]: 0%
pest or weed control at 500 g/ha [7]: 0%
pest or weed control at 125 g/ha [8]: 0%
pest or weed control at 500 g/ha [8]: 0%
pest or weed control at 125 g/ha (Kochia (Kochia scoparia); approx. 10 d): 0%
pest or weed control at 500 g/ha (Kochia (Kochia scoparia)): 0%
pest or weed control at 125 g/ha ([9]; approx. 10 d): 0%
pest or weed control at 500 g/ha [9]: 0%
pest or weed control at 125 g/ha ([10]; approx. 10 d): 0%
pest or weed control at 500 g/ha [10]: 0%
pest or weed control at 125 g/ha ([11]; approx. 10 d): 0%
pest or weed control at 500 g/ha [11]: 0%
pest or weed control at 125 g/ha ([12]; approx. 10 d): 0%
pest or weed control at 500 g/ha [12]: 0%
pest or weed control at 125 g/ha ([13]; approx. 10 d): 0%
pest or weed control at 500 g/ha [13]: 0%

Cc1nc([C@H]2CNC(=O)[C@@H]2C(=O)Nc2ccccc2F)cs1 [Compound 1179]
pest or weed control at 125 g/ha [1]: 0%
pest or weed control at 500 g/ha [1]: 0%
plant injury at 125 g/ha (corn (Zea mays)): 0%
plant injury at 500 g/ha (corn (Zea mays)): 0%
pest or weed control at 125 g/ha [2]: 0%
pest or weed control at 500 g/ha [2]: 0%
plant injury at 125 g/ha [3]: 0%
plant injury at 500 g/ha [3]: 0%
pest or weed control at 125 g/ha [4]: 0%
pest or weed control at 500 g/ha [4]: 0%
pest or weed control at 125 g/ha [5]: 0%
pest or weed control at 500 g/ha [5]: 0%
pest or weed control at 125 g/ha [6]: 0%
pest or weed control at 500 g/ha [6]: 0%
pest or weed control at 125 g/ha [7]: 0%
pest or weed control at 500 g/ha [7]: 0%
pest or weed control at 125 g/ha [8]: 0%
pest or weed control at 500 g/ha [8]: 0%
pest or weed control at 125 g/ha (Kochia (Kochia scoparia); approx. 10 d): 0%
pest or weed control at 500 g/ha (Kochia (Kochia scoparia)): 0%
pest or weed control at 125 g/ha ([9]; approx. 10 d): 0%
pest or weed control at 500 g/ha [9]: 0%
pest or weed control at 125 g/ha ([10]; approx. 10 d): 0%
pest or weed control at 500 g/ha [10]: 0%
pest or weed control at 125 g/ha ([11]; approx. 10 d): 0%
pest or weed control at 500 g/ha [11]: 0%
pest or weed control at 125 g/ha ([12]; approx. 10 d): 0%
pest or weed control at 500 g/ha [12]: 0%
pest or weed control at 125 g/ha ([13]; approx. 10 d): 0%
pest or weed control at 500 g/ha [13]: 0%
